The source of these data is patent US20090209046A1, “Neutral Pharmaceuticals” (priority 2006, published 2009).

Series [1] can be described thus: Measurement of P: partition coefficient in 1-octanol/water system. The conditions noted are these: 25° C., observed, for aspirin and caffeine the parent drug itself.
Series [2] in a line: Measurement of solubility in water, octanol saturated water and water saturated octanol. The conditions noted are these: 25° C.; for logSR (Swo/Sow): log solubility ratio; for Sow: solubility in octanol saturated water; for Swo: solubility in water saturated octanol; for Sw: solubility in water.
Experimental: Solubilities were determined at 25° C. in water (Sw), octanol saturated water (Sow), water saturated octanol (Swo). An excess of the sample was added to 15 ml of each solvent and stirred vigorously at 25° C. for 8 hours. […] The supernatant was collected. The supernatant samples after appropriate dilutions with respective solvent were analyzed by UV spec using a standard plot of solute in the same medium. Solubility of copper acetate in water saturated octanol was determined by extracting 200 ml saturated wo solution into 20 ml ow.

`CC(=O)Oc1ccccc1C(=O)[O-].CC(=O)Oc1ccccc1C(=O)[O-].CC(=O)Oc1ccccc1C(=O)[O-].CC(=O)Oc1ccccc1C(=O)[O-].[Cu+2].[Cu+2]` [ASP-1, Cu2(ASP)4]: in series [1], the logP of complex is −0.2371(267). Further, in series [2], the “logSR (Swo/Sow)” value is on record as −0.4847, the Sow is listed as 2.981(3) mg/ml, the Swo was 0.9767(36) mg/ml and the Sw is reported as 3.414(25) mg/ml.

Regarding `CC(=O)Oc1ccccc1C(=O)[O-].CC(=O)Oc1ccccc1C(=O)[O-].CC(=O)Oc1ccccc1C(=O)[O-].CC(=O)Oc1ccccc1C(=O)[O-].CN(C)C=O.CN(C)C=O.[Cu+2].[Cu+2]` [ASP-2, Cu2(ASP)4(DMF)2], in series [1], the logP of complex is listed as −0.3484(166). Also, in series [2], the “logSR (Swo/Sow)” value is −0.4873, the Sow is 4.493(4) mg/ml, the Swo was 1.463(26) mg/ml and the Sw is listed as 3.092(33) mg/ml.

Consider `CC(=O)Oc1ccccc1C(=O)[O-].CC(=O)Oc1ccccc1C(=O)[O-].[Cu+2].c1ccncc1.c1ccncc1` [ASP-5, Cu(ASP)2(Pyridine)2], for which, in series [2], the “logSR (Swo/Sow)” value is given as −0.4770, the Sow is recorded as 3.629(24) mg/ml, the Swo is listed as 1.210(47) mg/ml and the Sw is reported as 3.425(21) mg/ml.

For `CC(=O)Oc1ccccc1C(=O)[O-].CC(=O)Oc1ccccc1C(=O)[O-].[Cu+2].c1ccc(-c2cccnc2)cc1.c1ccc(-c2cccnc2)cc1` [ASP-9, Cu(ASP)2(3-Phenyl-Pyridine)2], in series [2], the “logSR (Swo/Sow)” value is listed as 0.4495, the Sow is recorded as 0.4085(17) mg/ml, the Swo is 1.150(20) mg/ml and the Sw is 0.5415(7) mg/ml.

`Clc1cccnc1.Clc1cccnc1.O=C(Oc1ccccc1C(=O)[O-])c1ccccc1O.O=C(Oc1ccccc1C(=O)[O-])c1ccccc1O.O=C(Oc1ccccc1C(=O)[O-])c1ccccc1O.O=C(Oc1ccccc1C(=O)[O-])c1ccccc1O.[Cu+2].[Cu+2]` [SAS-3, Cu2(SAS)4(3-Cl-Pyridine)2]: in series [2], the “logSR (Swo/Sow)” value turned out to be 0.7472, the Sow is on record as 0.1259(4) mg/ml, the Swo is 0.7034(61) mg/ml and the Sw is listed as 0.1239(1) mg/ml.

For `O=C(Oc1ccccc1C(=O)[O-])c1ccccc1O.O=C(Oc1ccccc1C(=O)[O-])c1ccccc1O.O=C(Oc1ccccc1C(=O)[O-])c1ccccc1O.O=C(Oc1ccccc1C(=O)[O-])c1ccccc1O.[Cu+2].[Cu+2].c1ccc(Cc2ccncc2)cc1.c1ccc(Cc2ccncc2)cc1` [SAS-4, Cu2(SAS)4(4-Benzyl-Pyridine)2], in series [2], the “logSR (Swo/Sow)” value worked out at 1.336, the Sow was 0.0153(3) mg/ml, the Swo was 0.3314(22) mg/ml and the Sw is recorded as 0.0134(3) mg/ml.

On to `O=C(Oc1ccccc1C(=O)[O-])c1ccccc1O.O=C(Oc1ccccc1C(=O)[O-])c1ccccc1O.[Cu+2].c1ccncc1.c1ccncc1.c1ccncc1` [SAS-6, Cu(SAS)2(Pyridine)3], for which, in series [2], the “logSR (Swo/Sow)” value was 0.7655, the Sow is recorded as 0.3291(8) mg/ml, the Swo is 1.918(5) mg/ml and the Sw is given as 0.4065(8) mg/ml.

For `Cc1ccncc1.Cc1ccncc1.O=C(Oc1ccccc1C(=O)[O-])c1ccccc1O.O=C(Oc1ccccc1C(=O)[O-])c1ccccc1O.[Cu+2]` [SAS-8, Cu(SAS)2(4-Me-Pyridine)2], in series [2], the “logSR (Swo/Sow)” value is on record as 0.9488, the Sow is 0.2174(10) mg/ml, the Swo is 1.932(23) mg/ml and the Sw is listed as 0.2301(18) mg/ml.

Take `CCc1ccncc1.CCc1ccncc1.O=C(Oc1ccccc1C(=O)[O-])c1ccccc1O.O=C(Oc1ccccc1C(=O)[O-])c1ccccc1O.[Cu+2]` [SAS-9, Cu(SAS)2(4-Et-Pyridine)2]: in series [2], the “logSR (Swo/Sow)” value worked out at 1.115, the Sow was 0.1104(8) mg/ml, the Swo is reported as 1.438(9) mg/ml and the Sw is recorded as 0.1143(2) mg/ml.
